“And” between values parts separate entries of the source, which are not always exact repeats. Equal values may be shown once.
Tests used:
OHSS rats [1] = test: Dose response of quinagolide on vascular permeability in OHSS rats (Example 4); assay type: in vivo, Wistar rats; details: single rat, 48-56 h after hCG
Procedure: (§1) Inducing OHSS manifestations. A total of 96 female immature Wistar rats (Harlan Iberica, Sant Feliu de Codina, Barcelona, SPAIN), weighing from 42-48 grams at the beginning of these experiments (day 22), were used to carry out the studies disclosed in Examples 4 and 5. They were injected subcutaneously (s.c) with 10 IU of Pregnant Mare's Serum Gonadotropin (PMSG) (Sigma) for 4 consecutive days (days 22-25), followed by administered intraperitoneally (i.p.) with 30 IU of hCG on the fifth day (day 26) in order to induce OHSS clinical manifestations.
(§2) Measuring vascular permeability (VP). VP was used as an index to estimate and compare the degree of development of the illness. VP was measured in all animals 48-56 hours after hCG administration, following methodology previously described (Gomez et al., supra). Briefly, 0.2 ml Evans Blue dye, 0.05 M, was injected through the femoral vein. After 30 minutes, the peritoneal cavity was irrigated with 5 ml saline, pH 6, 22° C., and massaged for 30 seconds to recover extravasated dye. The peritoneal fluid was recovered in 13 ml tubes containing 0.1 ml NaOH. The tubes were centrifuged at 900×g for 12 minutes to avoid protein interference. The supernatant was filtered through 0.22 um filters in order to eliminate ascitic protein/fibrin mucus which could interfere in the posterior measurements. Finally the absorbance of the extravasated dye was measured at 595 nm using a spectrophotometer. Average and average deviations in each group (see below) were calculated. VP was expressed as μg extravasated Evans Blue dye/100 g body weight in each animal.
A total of 70 rats were used for this study. All 70 rats were administered PMSG/hCG to induce OHSS symptoms, as described above. Quinagolide (batch no. 1010003004; supplied by Ferring Labs) was administered to 56 rats. The 56 rats that received quinagolide were used as a dose response test group. […] Cabergoline (Dostinex®) was administered to 6 rats as a positive control. The specific details of the dosing regimen for each group is as follows:
Vehicle control group (quinagolide 0 μg/kg) (n=8). Eight rats were implanted with prolactin placebo pellets, 5 days release, between 10:00 to 11:00 on day 26, just following hCG injection (see General Procedures, above). Six hours after pellet implantation, the rats in this group were orally administered vehicle solution (1:6 alcohol in water mixture) (without quinagolide). They received another oral vehicle administration of vehicle solution 24 hours later. Experimental groups (quinagolide at 0.1, 0.3, 1, 3, 10, 25, 50 μg/kg/day to 7 test groups of rats) (n=8 in each test group). The rats in these groups were implanted with prolactin pellets, 5 days release, between 10:00 to 11:00 on day 26, just following hCG injection (see General Procedures, above). […] In this manner, the desired 0.1, 0.3, 1, 3, 10, 25, 50 μg/kg doses to be assayed were achieved. Twenty four hours later, the rats in this group were administered with another dose of the same amounts of quinagolide. Positive (cabergoline) control group (n=6). These six rats were implanted with prolactin pellets, 5 days release, between 10:00 to 11:00 .m on day 26, just following hCG injection. […] Twenty four hours later, the rats in this group were administered with another dose of the same amount of cabergoline. […] Reconstitution and dilution process to reach appropriate quinagolide doses for oral administration. Appropriate doses were prepared fresh just prior to being administered (on day 26). A single quinagolide vial, containing approximately 2.30-2.30 mg quinagolide, was employed for each single set of animals. For each solution, approximately 2.30-2.30 mg quinagolide was diluted in a vehicle solution (1:6 alcohol:water mixture) to achieve a stock concentration of 100 μg quinagolide per ml solution. […]

OHSS rats [2] = test: Dose response of quinagolide on vascular permeability in OHSS rats, reassessment (Example 5); assay type: in vivo, Wistar rats; details: single rat
Procedure: as §1, §2
For Example 5, three quinagolide doses were tested: 5, […] 250 μg/kg/day. The 250 μg/kg/day dose was tested in order to determine if the maximal potential inhibitory effect of quinagolide had been reached in Example 4.
A total of 26 rats were used for this study. All 26 rats were administered PMSG/hCG to induce OHSS symptoms, as described above. Quinagolide was administered to 18 rats, divided into three groups of six rats per group. The 18 rats that received quinagolide were used as a dose response test group. […] A positive control group was not employed for this Example. The specific details of the dosing regimen for each group is as follows:
Vehicle control group (quinagolide 0 μg/kg) (n=8). Eight rats were implanted with prolactin placebo pellets, 5 days release, between 10:00 to 11:00 on day 26, just following hCG injection (see General Procedures, above). Six hours after prolactin placebo pellet implantation, the rats in this group were orally administered vehicle solution (1:6 alcohol:water mixture) (without quinagolide). They received another oral administration of vehicle solution 24 hours later. Experimental groups (quinagolide at 5, 62.5, 250 μg/kg/day to 3 test groups of rats) (n=6 in each test group). These rats were implanted with prolactin pellets, 5 days release, between 10:00 to 11:00 am on day 26, just following hCG injection (see General Procedures, above). […] In this manner, the desired 5, 62.5, and 250 μg/kg doses to be assayed were achieved. Twenty four hours later, the rats in this group were administered with another dose of the same amounts of quinagolide. Reconstitution and dilution process to reach appropriate quinagolide doses for oral administration. A commercial drug, Norprolac®, was used as the source of quinagolide for this Example. Four Norprolac® pills, containing 150 μg quinagolide each (600 μg quinagolide total) were diluted in 6250 μl of distilled water. A volume of 1250 μl of alcohol was added to reach a vehicle solution (1:6 alcohol:water mixture) containing 80 μg quinagolide per ml solution. A 1.5 ml aliquot was serially diluted (1:4, 1:12.5) in the same vehicle solution. A 250 μl oral administration of each quinagolide solution was given to the appropriate rat in each group on the same day hCG was administered (day 26), as described. […]

OHSS rats [3] = test: Vascular permeability (Evans Blue) in OHSS rats treated with bromocriptine (Example 1); assay type: in vivo, Wistar rats; details: VP 48 h after hCG
Procedure: Drug Treatment. Immature female Wistar rats were employed. In the OHSS group (n=8), Pregnant Mare's Serum Gonadotropin (PMSG) was administered at 10 IU/day for 4 days, followed by hCG (30 IU) on the fifth day. In the mild (i.e., ovarian stimulation) group (n=8), 10 IU of PMSG was administered followed 2 days later by administration of 10 IU of hCG. In the control group, 1 IU of PMSG was administered followed by 1 IU of hCG 48 hrs later. Vascular Permeability Measurement. Vascular permeability was measured 48 hours following hCG administration. 0.2 ml of 5 mM Evans Blue stain was injected via the femoral vein. After 30 minutes, the peritoneal cavity was irrigated with saline. Light absorption was measured in the recovered fluid at 595 nm and the vascular permeability was expressed as μg Evans blue/100 g body weight. In a second series of experiments, varying doses of bromocriptine were administered in a group of rats induced to develop OHSS with 40 IU of PMSG followed by 30 IU of hCG. 1.6, 4.0, 10.0 and 25.0 mg/kg of bromocriptine were intraperitoneally administered on the day of hCG administration and 24 hours later. VP was measured 48 hours following hCG administration.

[4] = test system: patients with treatment-resistant OHSS; details: oral docarpamine, 27 patients; cited from earlier work
[5] = quinagolide 5 μg/kg/day oral (Norprolac pills)
[6] = quinagolide 250 μg/kg/day oral (Norprolac pills)
[7] = quinagolide 62. μg/kg/day oral (Norprolac pills)

## CCCN1CC(NS(=O)(=O)N(CC)CC)CC2Cc3c(O)cccc3CC21 (stereo not drawn) [Quinagolide, quinagolide]
OHSS rats [1]; quinagolide 0.1 μg/kg/day oral
  Absorbance at 595 nm: 0.081 and 0.646 and 0.338 and 0.35
  μg EB per 100 g body weight: 4.871 μg EB per 100 g body weight and 37.81 μg EB per 100 g body weight and 21.05 μg EB per 100 g body weight and 21.19 μg EB per 100 g body weight
  μg Evans Blue (Abs * 4360): 353.16 µg and 2816.56 µg and 1473.68 µg and 1526 µg
OHSS rats [1]; quinagolide 0.3 μg/kg/day oral
  Absorbance at 595 nm: 0.28 and 0.547 and 0.768 and 0.342 and 0.444
  μg EB per 100 g body weight: 16.96 μg EB per 100 g body weight and 36.69 μg EB per 100 g body weight and 47.84 μg EB per 100 g body weight and 20.57 μg EB per 100 g body weight and 25.8112 μg EB per 100 g body weight
  μg Evans Blue (Abs * 4360): 1220.8 µg and 2384.92 µg and 3348.48 µg and 1491.12 µg and 1935.84 µg
OHSS rats [1]; quinagolide 1 μg/kg/day oral
  Absorbance at 595 nm: 0.396 and 0.341 and 0.389 and 0.424 and 0.256 and 0.205
  μg EB per 100 g body weight: 27.85 μg EB per 100 g body weight and 22.53 μg EB per 100 g body weight and 22.32 μg EB per 100 g body weight and 26.41 μg EB per 100 g body weight and 14.31 μg EB per 100 g body weight and 12.33 μg EB per 100 g body weight
  μg Evans Blue (Abs * 4360): 1726.56 µg and 1486.76 µg and 1696.04 µg and 1848.64 µg and 1116.16 µg and 893.8 µg
OHSS rats [1]; quinagolide 3 μg/kg/day oral
  Absorbance at 595 nm: 0.09 and 0.394 and 0.181 and 0.584 and 0.369 and 0.581
  μg EB per 100 g body weight: 5.945 μg EB per 100 g body weight and 26.84 μg EB per 100 g body weight and 9.927 μg EB per 100 g body weight and 37.17 μg EB per 100 g body weight and 23.32 μg EB per 100 g body weight and 31.08 μg EB per 100 g body weight
  μg Evans Blue (Abs * 4360): 392.4 µg and 1717.84 µg and 789.16 µg and 2546.24 µg and 1608.84 µg and 2533.16 µg
OHSS rats [1]; quinagolide 10 μg/kg/day oral
  Absorbance at 595 nm: 0.418 and 0.145 and 0.188 and 0.328 and 0.626
  μg EB per 100 g body weight: 24.63 μg EB per 100 g body weight and 8.543 μg EB per 100 g body weight and 12.42 μg EB per 100 g body weight and 19.73 μg EB per 100 g body weight and 37.39 μg EB per 100 g body weight
  μg Evans Blue (Abs * 4360): 1822.48 µg and 632.2 µg and 819.68 µg and 1430.08 µg and 2729.36 µg
OHSS rats [1]; quinagolide 25 μg/kg/day oral
  Absorbance at 595 nm: 0.299 and 0.311 and 0.042 and 0.669 and 0.08
  μg EB per 100 g body weight: 19.17 μg EB per 100 g body weight and 19.23 μg EB per 100 g body weight and 2.654 μg EB per 100 g body weight and 40.51 μg EB per 100 g body weight and 4.501 μg EB per 100 g body weight
  μg Evans Blue (Abs * 4360): 1303.64 µg and 1355.96 µg and 183.12 µg and 2916.84 µg and 348.8 µg
OHSS rats [1]; quinagolide 50 μg/kg/day oral
  Absorbance at 595 nm: 0.179 and 0.048 and 0.151 and 0.358 and 0.09 and 0.215
  μg EB per 100 g body weight: 10.84 μg EB per 100 g body weight and 2.847 μg EB per 100 g body weight and 9.144 μg EB per 100 g body weight and 22.95 μg EB per 100 g body weight and 5.267 μg EB per 100 g body weight and 12.5 μg EB per 100 g body weight
  μg Evans Blue (Abs * 4360): 780.44 µg and 209.28 µg and 658.36 µg and 1560.88 µg and 392.4 µg and 937.4 µg
OHSS rats [2]; [5]
  Absorbance at 595 nm: 0.622 and 0.924 and 0.491 and 0.181 and 0.242 and 0.335
  μg EB per 100 g body weight: 38.74 μg EB per 100 g body weight and 55.57 μg EB per 100 g body weight and 28.74 μg EB per 100 g body weight and 10.96 μg EB per 100 g body weight and 14.76 μg EB per 100 g body weight and 22.13 μg EB per 100 g body weight
  μg Evans Blue (Abs * 4360): 2711.92 µg and 4028.64 µg and 2140.76 µg and 789.16 µg and 1055.12 µg and 1460.6 µg
OHSS rats [2]; [6]
  Absorbance at 595 nm: 0.03 and 0.036 and 0.1709 and 0.021 and 0.103 and 0.056
  μg EB per 100 g body weight: 1.721 μg EB per 100 g body weight and 2.854 μg EB per 100 g body weight and 10.88 μg EB per 100 g body weight and 1.356 μg EB per 100 g body weight and 6.703 μg EB per 100 g body weight and 3.513 μg EB per 100 g body weight
  μg Evans Blue (Abs * 4360): 130.8 µg and 156.96 µg and 745.124 µg and 91.56 µg and 449.08 µg and 244.16 µg
OHSS rats [2]; [7]
  Absorbance at 595 nm: 0.115 and 0.125 and 0.256 and 0.209 and 0.299 and 0.201
  μg EB per 100 g body weight: 7.214 μg EB per 100 g body weight and 7.517 μg EB per 100 g body weight and 16.06 μg EB per 100 g body weight and 13.3 μg EB per 100 g body weight and 19.03 μg EB per 100 g body weight and 12.26 μg EB per 100 g body weight
  μg Evans Blue (Abs * 4360): 501.4 µg and 545 µg and 1116.16 µg and 911.24 µg and 1303.64 µg and 876.36 µg

## CC(C)C[C@H]1C(=O)N2CCC[C@H]2[C@]2(O)O[C@](NC(=O)[C@@H]3C=C4c5cccc6[nH]c(Br)c(c56)C[C@H]4N(C)C3)(C(C)C)C(=O)N12 [bromocriptine]
OHSS rats [3]; 1.6 mg bromocriptine i.p. on day of hCG and 24 h later, p=0.04
  vascular permeability: 15.3±3.3 μg Evans Blue/100 g body weight
OHSS rats [3]; 4 mg bromocriptine i.p. on day of hCG and 24 h later, p=0.04
  vascular permeability: 14.2±2.2 μg Evans Blue/100 g body weight
OHSS rats [3]; 10 mg bromocriptine i.p. on day of hCG and 24 h later, p=0.009
  vascular permeability: 10.1±2.6 μg Evans Blue/100 g body weight
OHSS rats [3]; 25 mg bromocriptine i.p. on day of hCG and 24 h later, p=0.001
  vascular permeability: 8.0±1.9 μg Evans Blue/100 g body weight

## CCOC(=O)Oc1ccc(CCNC(=O)[C@H](CCSC)NC(C)=O)cc1OC(=O)OCC [docarpamine]
[4]
  ascites: ascites was decreased
  diuresis: Diuresis was increased in some women
